# Measurements as given in US9216222B2 (priority 2013, dated 2015).
# Key:
# methemoglobin (metHb) [1] = test system: methemoglobin (metHb); parameters: species or system rats; conditions: rat, in vivo
# methemoglobin (metHb) [2] = conditions: in vivo; cited from earlier work
Structure (SMILES),metHb levels achieved (can reach) (methemoglobin (metHb) [1]),maximum metHb levels (methemoglobin (metHb) [2])
"CC(C)CCON=O [Isoamyl Nitrite, 3-methylbutyl nitrite]",≥ 20.0%,
CCCCCO[N+](=O)[O-] [amyl nitrate],,3.45-7.0%
